For one data set, the target named is LDHA (Homo sapiens, UniProt P00338). The following applies: literature; cited from earlier work.
The next data set concerns cells. The following applies: literature; cited from earlier work.
In the next data set the test system is PANC-1 cells. Put plainly: Cytotoxicity (viability/proliferation/necrosis) assay, PANC-1. Format: cell-based. The following applies: Homo sapiens; PANC-1, 48 hr, normoxic; read-out: Cytotoxicity IC50 ± SD, PANC-1.
The test system of data set [1] is FC1199 pancreatic cancer cells. Put plainly: Cytotoxicity (viability/proliferation/necrosis) assay, FC1199. It counts as cell-based. The following applies: Mus musculus, Pancreatic cancer cell; FC-1199, 48 hr; read-out: Cytotoxicity IC50 ± SD, FC-1199.
Description: (§1) Cytotoxicity study: Anticancer potency was investigated using a fluorescence-based high throughput confocal microscopy cell viability/proliferation/cell death assay. […] Selected compounds were also tested in the FC1199 pancreatic cancer line from the KPC-1 genetically engineered mouse model. Compounds were also tested in hTERT immortalized normal pancreatic (HPNE) cell lines to rule out nonspecific cytotoxicity of compounds.
(§2) Cell lines. The human PANC-1, MiaPaCa-2, and HPNE cell lines were obtained from American Type Culture Collection (ATCC, Manassas, VA, USA). Mouse pancreatic cancer FC1199 cells were obtained from the KPC-1 genetically engineered mouse model that has mutated K-Ras, metastasizes to the liver, and forms desmoplasia.
(§3) Cytotoxicity assay. Cytotoxicity was assessed using the viability/proliferation/necrosis assay. […] Confocal images were acquired using the Operetta High Content Imaging System (PerkinElmer). […] SYTOX Green will be detected using an excitation wavelength of 500-520 nm and an emission wavelength of 520-530 nm. Brightfield images will also be acquired for each field. […] Cell counts were summed over the five fields for each well, and the percentage of viable cells was calculated relative to the untreated control.
The nature of data set [2]: Cytotoxicity assay in hTERT immortalized normal pancreatic cells. Format: cell-based. The following applies: human, HPNE cells (hTERT immortalized normal pancreatic cells), read-out: Cytotoxicity IC50 ± SD, HPNE Normal.
Description: as §1, §2, §3
In the next data set the target is hLDH5 (LDHA) (Homo sapiens, UniProt P00338). Put plainly: Biochemical LDHA (hLDH5) inhibition assay, NADH fluorescence. The following applies: read-out: LDHA inhibition IC50 ± SD.
In data set [3] the test system is HeLa human cervical carcinoma cells. The settings on record: literature; normoxic conditions stated for NHI-2; cited from earlier work.
In data set [4] the test system is human pancreatic and lymphoma cancer xenografts. The following applies: literature; cited from earlier work.
The next data set has as its system Snu398 cells. The settings on record: literature; read-out: cell viability EC50 in Snu398 cells; cited from earlier work.
Another data set has as its system cancer cell growth. The settings on record: literature, hypoxic conditions; read-out: IC50, inhibition of cancer cell growth; cited from earlier work.
The conditions of data set [5]: literature; cited from earlier work.
The next data set concerns PANC-1. The settings on record: literature, normoxic conditions; read-out: viability IC50 in PANC-1; cited from earlier work.
A further data set deals with PDAC cells. The following applies: literature; cited from earlier work.
Another data set has as its system MIA PaCa-2. The settings on record: literature; read-out: cell viability IC50 in MIA PaCa-2; cited from earlier work.

Description for PANC-1 cells: as §1, §2, §3
Description for hLDH5 (LDHA): Biochemical LDHA inhibition assay: The hLDH5 (LDHA) enzymatic activity was measured by fluorescence (excitation@ 340 nm, emission@ 460 nm) to monitor the rate of conversion of NADH to NAD+at 37° C.
The hLDH5 (LDHA) inhibition assay was performed by measuring the fluorescence (excitation@ 340 nm, emission@ 460 nm) and monitoring the rate of conversion of NADH to NAD+at 37° C. as reported. […] The stock solution of compounds was prepared in DMSO. […] The experiment involved adding a solution of compounds in DMSO to the enzyme and NADH in a phosphate buffer. The assay plate was incubated at 25° C. for 10 minutes, and a baseline read was taken, after which pyruvate was added. The fluorescence was read for 5 minutes every 30 seconds in a microplate reader. The slope of a suitable linear timeframe was calculated with the curve bottom assigned to the initial 5-second recording before adding pyruvate (background rate) and the curve top to the negative (DMSO only) control wells rate. IC50 values were determined from dose-response curves using four-parameter logistic non-linear regression analysis in Prism Software v9.0. The assays were performed in triplicates and the data is presented as mean±SD (n=3).

Take `Cc1nc2ccc(NC(=O)CCNC(=O)CCCc3ccc(CC(C(=O)O)C(=O)O)cc3)cc2s1` [AZ33]: the IC50 at LDHA was 0.5 µM. The “cellular activity” value in the data set on cells is “inactive in cells”.
`COC(=O)C(CC(=O)Nc1ccc(C(=O)c2nccn2C)cc1)c1ccc(C(F)(F)F)cc1` (centres unmarked) [Compound 4]: the half-maximal inhibitory concentration (IC50) with PANC-1 cells is 23.9 ± 1.8 µM; in data set [1], 12.1 ± 1.2 µM. Moreover, in data set [2], the IC50 at 48 hr was determined as 49.5 ± 7.3 µM.
Consider `Cn1ccnc1C(=O)c1ccc(NC(=O)CC(C(=O)O)c2ccc(C(F)(F)F)cc2)cc1` (centres unmarked) [Compound 5], for which the IC50 was found to be 43.3 ± 3.98 µM in the data set with PANC-1 cells and 20.8 ± 2.97 µM in data set [1]. For the same compound, the IC50 at 48 hr in data set [2] is > 50 µM.
The corresponding values for `COC(=O)C(CC(=O)Nc1ccc(C(=O)N2CCc3ccccc32)cc1)c1ccc(C(F)(F)F)cc1` (centres unmarked) [Compound 17] are 24.2 ± 1.08 µM, 73.4 ± 6.8 µM and 50.7 ± 3.6 µM.
With `O=C(CC(C(=O)O)c1ccc(C(F)(F)F)cc1)Nc1ccc(C(=O)N2CCc3ccccc32)cc1` (centres unmarked) [Compound 19], the concentration for half-maximal inhibition (IC50) turned out to be 43.1 ± 4.87 µM in the data set with PANC-1 cells and 56.5 µM in data set [1]. Also, the concentration for half-maximal inhibition (IC50) at 48 hr in [2] is > 50 µM.
On to `COC(=O)C(CC(=O)Nc1ccc(F)cn1)c1ccc(C(F)(F)F)cc1` (centres unmarked) [Compound 23], for which the IC50 at hLDH5 (LDHA) was determined as 5.58 ± 1.05 µM; in the data set on PANC-1 cells, 22.3 ± 2 µM; in data set [1], 13.3 ± 0.9 µM. Further, the IC50 at 48 hr in data set [2] was > 50 µM.
Regarding `CCCc1c(O)c(O)c(C(=O)O)c2cc(Cc3ccccc3)c(C)cc12` [FX-11], the IC50 in data set [3] was 23.3 µM. Besides, in data set [4], the “progression of cancer xenografts” value is “inhibit the progression of human pancreatic and lymphoma cancer xenografts”.
Consider `COc1ncc(-c2ccc3c(Nc4cc(Oc5cc(F)cc(F)c5)cc(C(=O)O)c4)c(S(=O)(=O)NC4CC4)cnc3c2)c(OC)n1` [GSK2837808A], for which the half-maximal effective concentration (EC50) with Snu398 cells was 2.9 µM. In the data set with cancer cell growth, the IC50 is 2.97 µM. In data set [5], the “pharmacokinetics / clearance in vivo” value is recorded as “poor pharmacokinetics in vivo”.
As to `COC(=O)c1cc2c(C(F)(F)F)cc(-c3ccccc3)cc2n1O` [NHI-2], the concentration for half-maximal inhibition (IC50) in data set [3] was 33.4 µM; in the data set with PANC-1 it was 22.2 µM. For the same compound, in the data set with PDAC cells, the “apoptosis and gemcitabine synergy” value is “induced apoptosis, and synergistically enhanced gemcitabine activity in PDAC cells”.
Take GNE-140: the half-inhibitory concentration (IC50) was 2.05 µM with MIA PaCa-2 and 2 µM in the data set with cancer cell growth. Further, in data set [5], the “pharmacokinetics / clearance in vivo” value was “high clearance”.

Source of the values: patent publication US20240189276A1, “COMPOSITIONS COMPRISING LACTATE DEHYDROGENASE-A INHIBITORS AND METHODS OF PRODUCTION AND USE THEREOF” (Southwestern Oklahoma State University, priority 2022, published 2024).
